Experimental data taken from PMC10253665, “Enhancing the Catalytic Activity of Thermo-Asparaginase from Thermococcus sibiricus by a Double Mesophilic-like Mutation in the Substrate-Binding Region” (International Journal of Molecular Sciences, 2023).
Values belong to the molecule of their own block, whether it stands above or below them.

Columns and labels:
[1] = target: T1, TsA (L-asparaginase from Thermococcus sibiricus) (Thermococcus sibiricus, UniProt C6A532); assay: direct Nesslerization (ammonia release); format: biochemical; conditions: 90 °C, Tris-HCl 0.05 M pH 9.0 (b36 says same conditions as mutant)
T1 construct: gene TSIB_1676
T1 sequence (C6A532 entry or part of it): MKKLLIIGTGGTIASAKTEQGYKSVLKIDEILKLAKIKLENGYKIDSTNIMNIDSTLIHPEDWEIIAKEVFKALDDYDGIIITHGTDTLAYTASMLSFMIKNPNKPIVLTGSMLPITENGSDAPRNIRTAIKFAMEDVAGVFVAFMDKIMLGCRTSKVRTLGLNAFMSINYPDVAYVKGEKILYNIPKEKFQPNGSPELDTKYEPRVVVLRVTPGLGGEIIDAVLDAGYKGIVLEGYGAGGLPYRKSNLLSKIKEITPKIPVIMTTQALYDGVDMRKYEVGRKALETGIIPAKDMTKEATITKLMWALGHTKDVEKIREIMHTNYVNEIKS

[2] = substrate: NC(=O)C[C@H](N)C(=O)O; assay: direct Nesslerization (ammonia release); format: biochemical, Thermococcus sibiricus; conditions: 90 °C, glycine-NaOH 0.01 M pH 9.3, printed substrate range 20-250 μM

Km [1]: 3000 µM
Molecule: NC(=O)C[C@H](N)C(=O)O [L-asparagine]

B1: TsA (L-asparaginase from Thermococcus sibiricus) (Thermococcus sibiricus MM 739; D54G/T56Q) (protein)
chain: MKKLLIIGTGGTIASAKTEQGYKSVLKIDEILKLAKIKLENGYKIDSTNIMNIGSQLIHPEDWEIIAKEVFKALDDYDGIIITHGTDTLAYTASMLSFMIKNPNKPIVLTGSMLPITENGSDAPRNIRTAIKFAMEDVAGVFVAFMDKIMLGCRTSKVRTLGLNAFMSINYPDVAYVKGEKILYNIPKEKFQPNGSPELDTKYEPRVVVLRVTPGLGGEIIDAVLDAGYKGIVLEGYGAGGLPYRKSNLLSKIKEITPKIPVIMTTQALYDGVDMRKYEVGRKALETGIIPAKDMTKEATITKLMWALGHTKDVEKIREIMHTNYVNEIKS
Km [2]: 6000 µM
